From patent US20070014803A1, “METHODS AND COMPOSITIONS FOR DIAGNOSIS AND TREATMENT OF VIRAL AND BACTERIAL INFECTIONS” (Arbor Vita Corporation, priority 2005, published 2007)
Where no end group is shown, it is not given here.

How the values were obtained:
Test in all cases: MATRIX screen against PDZ library (modified G assay)
Type in all cases: binding
Settings in all cases: pre-incubation conditions
EBP50 = target: T1, EBP50 (Homo sapiens, UniProt O14745)
T1 construct: made in house
Method: (§1) Matrix graphPeptides and proteins were tested in an array format constituting a near complete set (255) of all the different PDZ domains in the human genome. Each PDZ domain polypeptide was expressed as a recombinant GST-PDZ polypeptide in a commercial glutathione S-transferase tagged expression system. Specific binding of biotinylated-PL peptides to PDZ domain polypeptides was detected using streptavidin-HRP and TMB substrate. Similarly, specific binding of PL protein-MBP fusion proteins to PDZ domain polypeptides was visualized using biotinylated anti-MBP, streptavidin-HRP and TMB substrate. The relative strength of binding was analyzed and the strong and weak binders are shown for each PL. A PDZ protein that binds more strongly is preferable when used for capturing or identifying PL proteins.
(§2) Two different types of ELISA assays were used to test the HIV Peptides 1904 and 1905. The primary MATRIX screen against all PDZ proteins in the library was performed under pre-incubation conditions, which are a modification of the G assay. A pre-incubation assay incubates the peptide with the HRP-streptavidin before addition of the mixture to the PDZ-coated plate. The subsequent titrations of the peptide against the PDZs of interest were performed under normal ELISA G assay conditions. In normal conditions the peptide is incubated on the PDZ coated plate before the later addition of the HRP-streptavidin. The reagents and supplies for both assays are listed below, as well as the two different protocols.
(§3) The PRISM Matrix ELISA modified G Assay was also used for pre-incubation and for the MATRIX assay. The protocol was as follows.
(§4) 1. Coat plate with 100 μl of 5 μg/ml anti-GST, O/N @ 4° C.
(§5) 2. Dump contents out of plate and tap dry on paper towels
(§6) 3. Block with 200 μl Assay Buffer for 1 to 2 hrs at room temperature
(§7) 4. Prepare proteins in Assay Buffer
(§8) 5. Wash plate 3× with cold PBS*
(§9) 6. Add proteins at 50 μl per well, incubate 1 to 2 hrs at 4° C.
(§10) 7. Prepare peptides in Assay Buffer:
(§11) • Prepare peptides in half of volume need with double of desired concentration. • Dilute HRP (1:1000) in another half of volume (same volume with peptide) then mix with peptides. • Incubate the peptide-HRP mixtures for 20 minutes at RT 8. Wash plate 3× with cold PBS* 9. Add peptide-HRP mixtures at 50 μl per well (write time on plate) 10. Incubate at RT after last peptide has been added for exactly 30 minutes 11. Turn on plate reader and prepare files 12. Promptly wash plate 5× with room temperature PBS 13. Add 100 μl/well TMB substrate (write time on plate) 14. Incubate in dark at room temp for a maximum of 30 minutes 15. Stop reaction with 100 μl of 0.18M H2SO4, 30 min. after adding TMB 16. Take last reading at 450 nm soon after stopping reaction

EBP50 d1 = target: T2, EBP50 d1 (Homo sapiens, UniProt O14745)
T2 construct: made in house
T2 sequence (O14745 with tags, fused parts or gaps): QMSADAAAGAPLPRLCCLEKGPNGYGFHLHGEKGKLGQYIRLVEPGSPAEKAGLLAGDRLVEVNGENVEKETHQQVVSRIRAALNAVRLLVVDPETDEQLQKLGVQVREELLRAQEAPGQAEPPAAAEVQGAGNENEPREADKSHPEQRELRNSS
Method: as §1, §2, §3, §4, §5, §6, §7, §8, §9, §10, §11

PICK1 F.L. = target: T3, PICK1 F.L. (Homo sapiens, UniProt Q9NRD5)
T3 construct: PICK1 F.L; made in house
T3 sequence (Q9NRD5 whole entry): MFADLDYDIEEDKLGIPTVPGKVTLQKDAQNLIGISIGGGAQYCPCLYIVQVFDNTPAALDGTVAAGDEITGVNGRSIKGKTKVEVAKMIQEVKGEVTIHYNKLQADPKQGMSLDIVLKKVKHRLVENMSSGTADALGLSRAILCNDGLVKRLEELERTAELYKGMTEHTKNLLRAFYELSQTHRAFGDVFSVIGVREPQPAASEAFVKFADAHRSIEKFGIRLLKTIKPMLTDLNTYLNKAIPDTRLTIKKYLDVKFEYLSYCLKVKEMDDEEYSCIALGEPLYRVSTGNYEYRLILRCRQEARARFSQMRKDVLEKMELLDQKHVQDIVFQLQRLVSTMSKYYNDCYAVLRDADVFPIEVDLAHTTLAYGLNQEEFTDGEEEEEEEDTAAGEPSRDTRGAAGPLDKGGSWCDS
Method: as §1, §2, §3, §4, §5, §6, §7, §8, §9, §10, §11

Shank 1 = target: T4, Shank 1 (Homo sapiens, UniProt Q9Y566)
T4 construct: made in house
T4 sequence (Q9Y566 with tags, fused parts or gaps): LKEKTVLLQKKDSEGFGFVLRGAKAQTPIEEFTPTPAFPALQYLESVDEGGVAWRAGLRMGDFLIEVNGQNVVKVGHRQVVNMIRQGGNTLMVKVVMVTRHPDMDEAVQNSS
Method: as §1, §2, §3, §4, §5, §6, §7, §8, §9, §10, §11

Shank 2 = target: T5, Shank 2 (Homo sapiens, UniProt Q9UPX8)
T5 construct: made in house
T5 sequence (Q9UPX8 with tags, fused parts or gaps): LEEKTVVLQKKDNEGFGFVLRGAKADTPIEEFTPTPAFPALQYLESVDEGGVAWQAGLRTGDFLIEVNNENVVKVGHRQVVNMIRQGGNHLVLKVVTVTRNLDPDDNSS
Method: as §1, §2, §3, §4, §5, §6, §7, §8, §9, §10, §11

Shank 3 = target: T6, Shank 3 (Homo sapiens, UniProt Q9BYB0)
T6 construct: made in house
T6 sequence (Q9BYB0 638-747): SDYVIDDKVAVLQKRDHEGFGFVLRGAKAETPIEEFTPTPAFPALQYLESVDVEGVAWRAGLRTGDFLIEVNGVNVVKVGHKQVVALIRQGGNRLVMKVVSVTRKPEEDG
Method: as §1, §2, §3, §4, §5, §6, §7, §8, §9, §10, §11

Tip = target: T7, Tip (Homo sapiens, UniProt O14907)
T7 construct: made in house
T7 sequence (O14907 15-112): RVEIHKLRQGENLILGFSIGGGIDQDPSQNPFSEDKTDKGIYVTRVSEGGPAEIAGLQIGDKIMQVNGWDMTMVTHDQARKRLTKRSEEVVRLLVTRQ
Method: as §1, §2, §3, §4, §5, §6, §7, §8, §9, §10, §11

AIPC d1 = target: T8, AIPC d1 (Homo sapiens, UniProt O15018)
T8 construct: made in house
T8 sequence (O15018 with tags, fused parts or gaps): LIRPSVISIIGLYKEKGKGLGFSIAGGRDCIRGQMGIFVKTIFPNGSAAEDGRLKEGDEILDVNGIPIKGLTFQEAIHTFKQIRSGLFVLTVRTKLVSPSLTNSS
Method: as §1, §2, §3, §4, §5, §6, §7, §8, §9, §10, §11

GORASP1 d1 = target: T9, GORASP1 d1 (Homo sapiens, UniProt Q9BQQ3)
T9 construct: made in house
T9 sequence (Q9BQQ3 1-110): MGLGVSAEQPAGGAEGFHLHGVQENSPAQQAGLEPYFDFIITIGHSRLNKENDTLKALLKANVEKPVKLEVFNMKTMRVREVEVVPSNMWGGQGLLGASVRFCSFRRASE
Method: as §1, §2, §3, §4, §5, §6, §7, §8, §9, §10, §11

INADL d3 = target: T10, INADL d3 (Homo sapiens, UniProt Q8NI35)
T10 construct: made in house
T10 sequence (Q8NI35 with tags, fused parts or gaps): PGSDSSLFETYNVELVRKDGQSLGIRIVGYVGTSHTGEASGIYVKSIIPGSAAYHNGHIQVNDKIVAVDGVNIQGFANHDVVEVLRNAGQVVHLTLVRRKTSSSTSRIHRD
Method: as §1, §2, §3, §4, §5, §6, §7, §8, §9, §10, §11

KIAA0316 = target: T11, KIAA0316 (Homo sapiens, UniProt Q14CM0, A161E)
T11 construct: made in house
T11 sequence (Q14CM0 with tags, fused parts or gaps A161E): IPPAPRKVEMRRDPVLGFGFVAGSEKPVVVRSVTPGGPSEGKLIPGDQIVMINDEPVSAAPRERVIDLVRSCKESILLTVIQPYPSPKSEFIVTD
Method: as §1, §2, §3, §4, §5, §6, §7, §8, §9, §10, §11

MINT1 d1, 2 = target: T12, MINT1 d1, 2 (Homo sapiens, UniProt Q02410)
T12 construct: MINT1 d1, 2; made in house
T12 sequence (Q02410 651-828): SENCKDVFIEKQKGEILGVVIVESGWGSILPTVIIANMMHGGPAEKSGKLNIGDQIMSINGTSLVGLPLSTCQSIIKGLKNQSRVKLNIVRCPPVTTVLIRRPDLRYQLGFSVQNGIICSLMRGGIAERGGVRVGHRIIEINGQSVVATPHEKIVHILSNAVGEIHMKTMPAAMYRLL
Method: as §1, §2, §3, §4, §5, §6, §7, §8, §9, §10, §11

MUPP1d11 = target: T13, MUPP1d11 (Homo sapiens, UniProt O75970)
T13 construct: made in house
T13 sequence (O75970 1716-1813): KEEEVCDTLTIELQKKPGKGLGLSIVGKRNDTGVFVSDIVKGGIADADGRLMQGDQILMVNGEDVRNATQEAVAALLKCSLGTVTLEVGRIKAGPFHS
Method: as §1, §2, §3, §4, §5, §6, §7, §8, §9, §10, §11

MUPP1d3 = target: T14, MUPP1d3 (Homo sapiens, UniProt O75970)
T14 construct: made in house
T14 sequence (O75970 with tags, fused parts or gaps): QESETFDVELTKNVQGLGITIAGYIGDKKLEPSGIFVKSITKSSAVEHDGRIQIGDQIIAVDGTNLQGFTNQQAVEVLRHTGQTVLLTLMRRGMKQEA
Method: as §1, §2, §3, §4, §5, §6, §7, §8, §9, §10, §11

Magi1 d1 = target: T15, Magi1 d1 (Homo sapiens, UniProt Q96QZ7)
T15 construct: made in house
T15 sequence (Q96QZ7 with tags, fused parts or gaps): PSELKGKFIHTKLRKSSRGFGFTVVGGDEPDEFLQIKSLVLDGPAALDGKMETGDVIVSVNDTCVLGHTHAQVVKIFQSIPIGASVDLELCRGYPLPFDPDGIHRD
Method: as §1, §2, §3, §4, §5, §6, §7, §8, §9, §10, §11

NOS1 = target: T16, NOS1 (Homo sapiens, UniProt P29475)
T16 construct: made in house
T16 sequence (P29475 11-100): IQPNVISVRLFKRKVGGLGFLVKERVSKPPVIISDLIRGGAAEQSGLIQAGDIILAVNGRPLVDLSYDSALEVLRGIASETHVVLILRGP
Method: as §1, §2, §3, §4, §5, §6, §7, §8, §9, §10, §11

PAR3L d3 = target: T17, PAR3L d3 (Homo sapiens, UniProt Q8TEW8)
T17 construct: made in house
T17 sequence (Q8TEW8 with tags, fused parts or gaps): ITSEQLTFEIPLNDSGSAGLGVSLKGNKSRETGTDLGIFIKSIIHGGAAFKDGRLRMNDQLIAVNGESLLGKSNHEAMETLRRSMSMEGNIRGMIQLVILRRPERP
Method: as §1, §2, §3, §4, §5, §6, §7, §8, §9, §10, §11

PAR6 beta = target: T18, PAR6 beta (Homo sapiens, UniProt Q9BYG5)
T18 construct: made in house
T18 sequence (Q9BYG5 with tags, fused parts or gaps): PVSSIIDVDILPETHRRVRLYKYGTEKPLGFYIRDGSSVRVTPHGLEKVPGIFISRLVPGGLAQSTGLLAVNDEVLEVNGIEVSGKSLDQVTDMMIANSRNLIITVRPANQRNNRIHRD
Method: as §1, §2, §3, §4, §5, §6, §7, §8, §9, §10, §11

RIM2 = target: T19, RIM2 (Homo sapiens, UniProt Q9UQ26)
T19 construct: made in house
T19 sequence (Q9UQ26 632-757): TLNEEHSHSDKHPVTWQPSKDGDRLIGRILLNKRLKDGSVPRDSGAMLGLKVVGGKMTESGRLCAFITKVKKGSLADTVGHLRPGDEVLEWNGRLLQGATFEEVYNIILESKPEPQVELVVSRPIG
Method: as §1, §2, §3, §4, §5, §6, §7, §8, §9, §10, §11

RhophilinLike = target: T20, RhophilinLike (Homo sapiens, UniProt Q8TCX5)
T20 construct: made in house
T20 sequence (Q8TCX5 with tags, fused parts or gaps): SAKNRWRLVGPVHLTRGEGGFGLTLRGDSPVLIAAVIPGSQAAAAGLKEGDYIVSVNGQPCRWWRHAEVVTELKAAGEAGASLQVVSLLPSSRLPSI
Method: as §1, §2, §3, §4, §5, §6, §7, §8, §9, §10, §11

SITAC-18 d1 = target: T21, SITAC-18 d1 (Homo sapiens, UniProt Q9H190)
T21 construct: made in house
T21 sequence (Q9H190 104-195): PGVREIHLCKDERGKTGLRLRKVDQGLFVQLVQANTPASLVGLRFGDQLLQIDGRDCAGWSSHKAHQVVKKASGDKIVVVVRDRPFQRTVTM
Method: as §1, §2, §3, §4, §5, §6, §7, §8, §9, §10, §11

SITAC-18 d2 = target: T22, SITAC-18 d2 (Homo sapiens, UniProt Q9H190)
T22 construct: made in house
T22 sequence (Q9H190 with tags, fused parts or gaps): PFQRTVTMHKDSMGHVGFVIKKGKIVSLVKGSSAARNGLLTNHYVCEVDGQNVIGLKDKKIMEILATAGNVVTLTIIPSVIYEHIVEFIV
Method: as §1, §2, §3, §4, §5, §6, §7, §8, §9, §10, §11

ZO-1 d4 = target: T23, ZO-1 d4 (Homo sapiens, UniProt Q07157)
T23 construct: ZO-1 d4; made in house
T23 sequence (Q07157 178-269 limits assumed): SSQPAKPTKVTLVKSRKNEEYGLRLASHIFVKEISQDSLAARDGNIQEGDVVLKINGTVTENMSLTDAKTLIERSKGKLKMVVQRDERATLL
Method: as §1, §2, §3, §4, §5, §6, §7, §8, §9, §10, §11

T1 sequence (O14745 whole entry): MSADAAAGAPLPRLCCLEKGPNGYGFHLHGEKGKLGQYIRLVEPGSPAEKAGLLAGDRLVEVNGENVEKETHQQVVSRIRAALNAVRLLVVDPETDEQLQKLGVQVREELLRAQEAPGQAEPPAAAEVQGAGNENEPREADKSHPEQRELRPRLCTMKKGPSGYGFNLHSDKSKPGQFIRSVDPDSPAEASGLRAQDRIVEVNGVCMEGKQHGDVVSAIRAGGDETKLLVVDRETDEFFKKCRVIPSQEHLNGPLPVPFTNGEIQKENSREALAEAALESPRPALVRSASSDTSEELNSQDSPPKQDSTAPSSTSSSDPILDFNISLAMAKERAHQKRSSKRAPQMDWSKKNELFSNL

YGRKKRRQRRRRQGFERALL-OH [Peptide 1905]
Intensity of Hit, PDZ EBP50 (EBP50): STRONG
Intensity of Hit, PDZ EBP50 d1 (EBP50 d1): STRONG
Intensity of Hit, PDZ PICK1 F.L. (PICK1 F.L.): STRONG
Intensity of Hit, PDZ Shank 1 (Shank 1): STRONG
Intensity of Hit, PDZ Shank 2 (Shank 2): STRONG
Intensity of Hit, PDZ Shank 3 (Shank 3): STRONG
Intensity of Hit, PDZ Tip (Tip): STRONG

YGRKKRRQRRRRQGLERILL-OH [Peptide 1904]
Intensity of Hit, PDZ AIPC d1 (AIPC d1): STRONG
Intensity of Hit, PDZ GORASP1 d1 (GORASP1 d1): STRONG
Intensity of Hit, PDZ INADL d3 (INADL d3): STRONG
Intensity of Hit, PDZ KIAA0316 (KIAA0316): STRONG
Intensity of Hit, PDZ MINT1 d1, 2 (MINT1 d1, 2): STRONG
Intensity of Hit, PDZ MUPP1d11 (MUPP1d11): STRONG
Intensity of Hit, PDZ MUPP1d3 (MUPP1d3): WEAK
Intensity of Hit, PDZ Magi1 d1 (Magi1 d1): STRONG
Intensity of Hit, PDZ NOS1 (NOS1): STRONG
Intensity of Hit, PDZ PAR3L d3 (PAR3L d3): STRONG
Intensity of Hit, PDZ PAR6 beta (PAR6 beta): STRONG
Intensity of Hit, PDZ RIM2 (RIM2): STRONG
Intensity of Hit, PDZ RhophilinLike (RhophilinLike): STRONG
Intensity of Hit, PDZ SITAC-18 d1 (SITAC-18 d1): STRONG
Intensity of Hit, PDZ SITAC-18 d2 (SITAC-18 d2): STRONG
Intensity of Hit, PDZ ZO-1 d4 (ZO-1 d4): STRONG
